Measured values as given in patent US8257696B2, “Indefinite culture of human adult glia without immortalization and therapeutic uses thereof” (University of Florida Research Foundation, Inc., priority 2004, dated 2012).
“Also recorded” adds a separate entry of the source.

Assays:
Format in all cases: cell-based, human
[1] = tested on: high passage cells (HES astroglia); test: Senescence-associated β-galactosidase (SA-β-gal) expression after growth arrestors; conditions: evaluated 7 days after addition, 1 μg/ml aphidicolin or 20 μM EGCG, vs age-matched controls
Experimental: Primary tissue was gathered from individuals undergoing surgery related to medically intractable temporal lobe epilepsy. Primary tissue was removed and stored overnight in ice-cold DMEM/F-12 medium containing 20 mg/ml penicillin, […] streptomycin., and 25 ng/ml amphotericin B (collectively 1× antibiotics). Hippocampus (containing hilus) and temporal cortex (not containing subventricular zone) were microdissected from biopsied tissue samples (n=4, data presented from person). Dissected tissues were placed in 1× phosphate buffered saline (PBS, pH 7.3) lacking CaCl2 or MgCl2, and were manually dissociated into 1 mm^3 pieces under sterile conditions. Tissues were collected and resuspended in 0.005% trypsin (15 min, 37° C., pH 7.3), and were further triturated using restricted bore pipetting. Cells were collected, resuspended in proliferative media, and seeded onto uncoated T75 culture flasks overnight (12 hr, 37° C., 5% humidified CO2). […] Cells were dissociated with 0.005% trypsin, counted (using trypan dye exclusion as viability criteria), and were replated onto uncoated 60 mm plastic dishes. […] To assess viability of cells in various growth conditions, equal numbers of culture-matched cells were seeded into triplicate wells of various proliferative conditions, and counted 7, 14, and 21 days later. […] Significance (p<0.05) was calculated using a student's t-test. […]

[2] = tested on: high passage cells (HES astroglia); test: Growth rate by cell counting after reversible growth inhibitors and washout; conditions: for proliferation upon removal of growth inhibitors: after removal of inhibitor; for rate of cellular proliferation (growth rate): high passage cells, measured 7 days after addition
Experimental: Primary tissue was gathered from individuals undergoing surgery related to medically intractable temporal lobe epilepsy. Primary tissue was removed and stored overnight in ice-cold DMEM/F-12 medium containing 20 mg/ml penicillin, […] streptomycin., and 25 ng/ml amphotericin B (collectively 1× antibiotics). Hippocampus (containing hilus) and temporal cortex (not containing subventricular zone) were microdissected from biopsied tissue samples (n=4, data presented from person). Dissected tissues were placed in 1× phosphate buffered saline (PBS, pH 7.3) lacking CaCl2 or MgCl2, and were manually dissociated into 1 mm^3 pieces under sterile conditions. Tissues were collected and resuspended in 0.005% trypsin (15 min, 37° C., pH 7.3), and were further triturated using restricted bore pipetting. Cells were collected, resuspended in proliferative media, and seeded onto uncoated T75 culture flasks overnight (12 hr, 37° C., 5% humidified CO2). Unattached cells were collected and seeded onto uncoated 60 mm plastic dishes in proliferative media. Proliferative media was comprised of DMEM/F-12 containing N2 supplements, 35 μg/ml bovine pituitary extract, 1× antibiotics, 5% fetal calf serum (FCS), and 40 ng/ml of EGF and FGF. 20 ng of EGF and FGF were supplemented twice daily. When necessary, media was changed every fourth day. Cells were frozen in aliquots of 1 million cells in DMEM/F-12 containing 10% FCS and 20% dimethyl sulfoxide (v/v). Cells were passaged 1:2 when confluent. Cells were dissociated with 0.005% trypsin, counted (using trypan dye exclusion as viability criteria), and were replated onto uncoated 60 mm plastic dishes. For growth monitoring experiments, 1 μg/ml aphidicolin or 20 μM EGCG were added to culture media 1 hour after plating. Irradiated cells were treated with a single 3 Gy dose of X-irradiation. Following the period of application, cells were washed in 1×PBS and were resuspended in proliferative media or fixed. To assess viability of cells in various growth conditions, equal numbers of culture-matched cells were seeded into triplicate wells of various proliferative conditions, and counted 7, 14, and 21 days later. For growth factor analysis, EGF and/or FGF were removed for seven days, and surviving cells were returned to proliferative media. Significance (p<0.05) was calculated using a student's t-test. In vitro images of cultured cells were captured using a Nikon Eclipse TS-100 bright field microscope and a Spot 3.1 digital camera (Diagnostic Instruments).
Isolation and Culture of Tissue: Primary tissue was gathered from individuals undergoing surgery related to medically intractable temporal lobe epilepsy. […]

TERT = test: Telomerase (TERT) expression after growth arrest; conditions: high passage cells, measured 7 days after addition
Experimental: Cells were plated on coverslips coated with poly-L-lysine or polyornithine and laminin and grown to confluency in proliferative media. Cells were fixed with 4% paraformaldehyde ([…], 25° C.). After washing with PBS, cells were blocked 20 min in PBS containing 10% FCS, 5% normal goat serum, and 0.01% Triton X-100. Primary antibodies were applied for either 1 hour at 25° C. or overnight at 4° C. in PBS containing 10% FCS and 0.01% Triton X-100. Primary antibodies: β III tubulin (mouse monoclonal, 1:300, Promega), BrdU (mouse monoclonal, 1:50, Becton-Dickinson), CNPase (mouse monoclonal, 1:250, Chemicon), GFAP (rabbit polyclonal, 1:600, DAKO), glutamine synthetase (rabbit polyclonal, 1:100, AbCam), map2a-c (chicken polyclonal, 1:30,000), nestin (mouse monoclonal, 1:50, Chemicon), O4 (mouse monoclonal IgM, 1:150, Chemicon), S100-β (rabbit polyclonal, 1:100, Swant), telomerase (rabbit polyclonal, 1:200, Santa Cruz). Secondary antibodies were applied for 45 min at 25° C. in PBS containing 10% FCS and 0.01% Triton X-100. […] SA-βGal expression was assessed 7 days after addition of growth arrestors as described (Dimri, G. P. et al. Proc Nat'l Acad Sci U S A 92, 9363-7 (1995)). […] Fluorescence microscopy was performed on a Leica DMLB upright microscope and images were captured with a Spot RT Color CCD camera (Diagnostic Instruments). […]

| Compound | SA-β-gal expression [1] | proliferation upon removal of growth inhibitors [2] | rate of cellular proliferation (growth rate) [2] | TERT (telomerase) expression (TERT) |
| --- | --- | --- | --- | --- |
| C[C@@]1(CO)[C@H](O)CC[C@@]2(C)[C@H]1CC[C@H]1C[C@@H]3C[C@@]12CC[C@]3(O)CO [aphidicolin] | marked increase in SA-β-Gal; also recorded: significantly higher levels of SA-β-gal than age-matched controls | return to previous levels of proliferation | lose their ability to proliferate in culture | continue to express telomerase |
| epigallocatechin-3-gallate [EGCG] | marked increase in SA-β-Gal; also recorded: express SA-β-Gal | return to previous levels of proliferation | lose their ability to proliferate in culture; also recorded: significantly reduced; also recorded: significant reduction | continue to express telomerase; also recorded: remained detectable; also recorded: remained ubiquitous |
